How the values were obtained:
[1] = test system: CYP2C9-mediated (S)-warfarin 7-hydroxylation; assay: Prediction of in vivo warfarin drug interaction from [I]/KI and [I]u/KI,u; set-up: species or system human; conditions: equation 1
[2] = single warfarin dose studies, healthy volunteers (n = 5 or 6); cited from earlier work

Question: Which results are given for CC(=O)C[C@@H](c1ccccc1)c1c(O)c2ccccc2oc1=O [(S)-warfarin]?
Answer: predicted increase in AUC ([1]; sum of [I]/KI ratios of AMIO and circulating metabolites): 6 fold; predicted increase in AUC ([1]; sum of [I]u/KI,u ratios of AMIO and circulating metabolites): 6 fold; actual increase in the mean AUC caused by the drug interaction with AMIO [2]: 27 to 110%

Reference: PMC3900249 (Clinical pharmacology and therapeutics, 2012)
